The values below come from ChEMBL document CHEMBL1153189, “The comparative antimalarial properties of weak base and neutral synthetic ozonides” (Bioorg Med Chem Lett, 2010).

Data set [1] deals with Plasmodium falciparum. Description: Antimalarial activity against chloroquine-resistant Plasmodium falciparum K1. It is filed as functional, organism-based.
The subject of data set [2] is Plasmodium falciparum. In words: Antimalarial activity against chloroquine-sensitive Plasmodium falciparum NF54. The format is functional, organism-based.
The test system of data set [3] is Plasmodium berghei. In words: Antimalarial activity against Plasmodium berghei infected in NMRI mice (Mus musculus) assessed as reduction in parasitaemia at 10 mg/kg, perorally administered 1 day post infection. The format is functional. The arrangement: scale not given: the % may be the effect or the level left. To be noted: route oral.
Data set [4] deals with Plasmodium berghei. In words: Antimalarial activity against Plasmodium berghei infected in NMRI mice (Mus musculus) assessed as reduction in parasitaemia at 3 mg/kg, perorally administered for 3 days post infection. To be noted: route oral. It is filed as functional. The arrangement: scale not given: the % may be the effect or the level left.
The test system of data set [5] is Plasmodium berghei. Description: Antimalarial activity against Plasmodium berghei infected in NMRI mice (Mus musculus) assessed as survival time at 3 mg/kg, perorally administered for 3 days post infection. The format is functional. The following applies: route oral.
Data set [6] concerns Plasmodium berghei. Description: Antimalarial activity against Plasmodium berghei infected in NMRI mice (Mus musculus) assessed as cure rat at 3 mg/kg, perorally administered for 3 days post infection measured after 30 days. The format is functional. The following applies: route oral.
Data set [7] is described as follows: Lipophilicity, log D at pH 7.4. It is filed as physicochemical. To be noted: buffer.
Data set [8] can be described thus: Half life in Sprague-Dawley rat at 10 mg/kg, iv. The format is ADME, organism-based. Further details: dose 10 mg/kg, route intravenous. The following applies: Sprague-Dawley, in vivo.
A short description of data set [9]: Volume of distribution in Sprague-Dawley rat at 10 mg/kg, iv. The format is ADME, organism-based. The arrangement: dose 10 mg/kg, route intravenous. To be noted: Sprague-Dawley, in vivo.
Data set [10] is described as follows: Blood clearance in Sprague-Dawley rat at 10 mg/kg, iv. The format is ADME, organism-based. The arrangement: dose 10 mg/kg, route intravenous. To be noted: whole blood.

In brackets after ≈: the same amount, converted by molar mass.

Broadly, the IC50 is the concentration needed to halve the response being measured. Take `Cc1ccc(S(=O)(=O)O)cc1.O=C(CNC1CC1)NC[C@H]1CC[C@]2(CC1)OO[C@]1(O2)C2CC3CC(C2)CC1C3`: the IC50 was found to be 0.39 ng/mL with Plasmodium falciparum [1] and 1.2 ng/mL in the data set with Plasmodium falciparum [2]. In the data set with Plasmodium berghei [3], the Activity is 99.6%.

For `NC(=O)C(=O)NC[C@H]1CC[C@]2(CC1)OO[C@]1(O2)C2CC3CC(C2)CC1C3`, the IC50 with Plasmodium falciparum [1] came out at 0.44 ng/mL (≈ 1.21 nM); in the data set with Plasmodium falciparum [2], 0.71 ng/mL (≈ 1.95 nM). In the data set on Plasmodium berghei [3], the Activity was 99.5%.

For `CC(C)(N)CNC(=O)C(=O)NC[C@H]1CC[C@]2(CC1)OO[C@]1(O2)C2CC3CC(C2)CC1C3.CS(=O)(=O)O`, the 50% inhibitory concentration (IC50) in the data set on Plasmodium falciparum [1] was 0.4 ng/mL; with Plasmodium falciparum [2], 0.54 ng/mL. The Activity in the data set on Plasmodium berghei [3] is listed as 99.9%; in the data set with Plasmodium berghei [4], above 99.9%; in the data set with Plasmodium berghei [6] it was 0%. For the same compound, in the data set with Plasmodium berghei [5], the Survival came out at 22.8 days.

In the case of `O=C(NC[C@H]1CC[C@]2(CC1)OO[C@]1(O2)C2CC3CC(C2)CC1C3)c1ccccn1`, in the data set with Plasmodium berghei [3], the Activity came out at 98%.

Take `CC(=O)NC[C@H]1CC[C@]2(CC1)OO[C@]1(O2)C2CC3CC(C2)CC1C3`: the IC50 worked out at 0.63 ng/mL (≈ 1.88 nM) in the data set on Plasmodium falciparum [1] and 0.84 ng/mL (≈ 2.5 nM) with Plasmodium falciparum [2]. For the same compound, the Activity in the data set on Plasmodium berghei [3] was determined as 98%.

In general, logD refers to the decadic logarithm of the distribution of all forms, ionised or not, between an organic phase and buffer at a given pH. As for `Cc1ccc(S(=O)(=O)O)cc1.O=C(CN1CCS(=O)(=O)CC1)NC[C@H]1CC[C@]2(CC1)OO[C@]1(O2)C2CC3CC(C2)CC1C3`, the half-inhibitory concentration (IC50) in the data set on Plasmodium falciparum [1] is 4.6 ng/mL; in the data set on Plasmodium falciparum [2], 5.5 ng/mL. Further, in the data set on Plasmodium berghei [3], the Activity is listed as 86%. In addition, in data set [7], the logD was 4.5.

With `O=C(O)C(=O)NC[C@H]1CC[C@]2(CC1)OO[C@]1(O2)C2CC3CC(C2)CC1C3`, the IC50 worked out at 58 ng/mL (≈ 159 nM) in the data set on Plasmodium falciparum [1] and 59 ng/mL (≈ 161 nM) in the data set on Plasmodium falciparum [2]. The Activity with Plasmodium berghei [3] is on record as below 40%.

For the compound `CS(=O)(=O)CC(=O)NCC1CC[C@]2(CC1)OO[C@]1(O2)C2CC3CC(C2)CC1C3` (stereo partly specified), the Activity in the data set on Plasmodium berghei [3] came to 99.2%.

On to `CS(=O)(=O)O.O=C(NC[C@H]1CC[C@]2(CC1)OO[C@]1(O2)C2CC3CC(C2)CC1C3)C(=O)NC1CCNCC1`, for which the IC50 stood at 0.56 ng/mL in the data set on Plasmodium falciparum [1] and 0.79 ng/mL with Plasmodium falciparum [2]. Further, the Activity is reported as above 99.9% in the data set with Plasmodium berghei [3], above 99.9% in the data set on Plasmodium berghei [4] and 20% with Plasmodium berghei [6]. In addition, in the data set on Plasmodium berghei [5], the Survival came to 22.4 days.

In the case of `CN1CCN(C(=O)NC[C@H]2CC[C@]3(CC2)OO[C@]2(O3)C3CC4CC(C3)CC2C4)CC1`, the IC50 is 0.2 ng/mL (≈ 0.477 nM) in the data set on Plasmodium falciparum [1] and 0.34 ng/mL (≈ 0.81 nM) with Plasmodium falciparum [2]. Besides, the Activity with Plasmodium berghei [3] stood at 99.9%.

With `CC(C)(N)C(=O)NC[C@H]1CC[C@]2(CC1)OO[C@]1(O2)C2CC3CC(C2)CC1C3`, the IC50 in the data set with Plasmodium falciparum [1] was determined as 0.5 ng/mL (≈ 1.32 nM); in the data set with Plasmodium falciparum [2], 0.36 ng/mL (≈ 0.951 nM). In addition, the Activity with Plasmodium berghei [3] is given as 99.9%; with Plasmodium berghei [4] it was above 99.9%; with Plasmodium berghei [6] it was 0%.

`CN(C)C(=O)NC[C@H]1CC[C@]2(CC1)OO[C@]1(O2)C2CC3CC(C2)CC1C3`: the values for the IC50 in the data set on Plasmodium falciparum [1] and in the data set on Plasmodium falciparum [2] were 1.1 ng/mL (≈ 3.02 nM) and 1.5 ng/mL (≈ 4.12 nM), respectively. In the data set on Plasmodium berghei [3], the Activity turned out to be 99.4%.

As for `Nc1n[nH]c(C(=O)NC[C@H]2CC[C@]3(CC2)OO[C@]2(O3)C3CC4CC(C3)CC2C4)n1`, the Activity in the data set on Plasmodium berghei [3] turned out to be 99.8%.

For `Cc1ccc(S(=O)(=O)O)cc1.O=C(CNCC1CC1)NC[C@H]1CC[C@]2(CC1)OO[C@]1(O2)C2CC3CC(C2)CC1C3`, the IC50 was 0.36 ng/mL in the data set with Plasmodium falciparum [1] and 1.2 ng/mL in the data set with Plasmodium falciparum [2].

In turn, `O=C(NC[C@H]1CC[C@]2(CC1)OO[C@]1(O2)C2CC3CC(C2)CC1C3)c1cccnc1` displayed an IC50 in the data set with Plasmodium falciparum [1] of 0.97 ng/mL (≈ 2.43 nM). For the same compound, the Activity in the data set with Plasmodium berghei [3] is listed as 99.6%.

The term half-life denotes the time in which the quantity being followed falls by half. One may read the Vd as a proportionality between amount in the body and measured concentration, not a real space. By clearance is commonly meant the rate of elimination divided by the concentration. In data set [8], `C[C@H]1[C@@H](O)O[C@@H]2O[C@@]3(C)CC[C@H]4[C@H](C)CC[C@@H]1[C@@]24OO3` [ARTENIMOL] showed a half-life of 26 min. In data set [9], this compound yielded a Vd of 3 L/kg. Besides, the clearance in data set [10] came to 72 mL/min/kg.

For the compound `C[C@H]1[C@H](OC(=O)CCC(=O)O)O[C@@H]2O[C@@]3(C)CC[C@H]4[C@H](C)CC[C@@H]1[C@@]24OO3` [ARTESUNATE], the Activity in the data set on Plasmodium berghei [3] is reported as 67%; in the data set on Plasmodium berghei [4], 70%; with Plasmodium berghei [6], 0%. The same compound registered a logD in data set [7] of 3.5.

For the compound `CCN(CC)CCCC(C)Nc1ccnc2cc(Cl)ccc12` (stereo unspecified) [CHLOROQUINE], the Survival with Plasmodium berghei [5] is 9.4 days. In addition, the Activity with Plasmodium berghei [6] is reported as 0%.

Consider `OC(c1cc(C(F)(F)F)nc2c(C(F)(F)F)cccc12)C1CCCCN1` (stereo unspecified) [MEFLOQUINE], for which, in the data set with Plasmodium berghei [6], the Activity is recorded as 0%.
